Data from the NIST ThermoML archive (doi:10.1016/j.jct.2014.12.011).

Assay: mn = molality of the nth substance listed, in mol/kg
Details: 100 kPa, Liquid, Alternating current cell with electrodes

CCCCCCCCCC(=O)[O-].[Na+] [sodium decanoate] + O
electrical conductivity [S/m]
Details	278.15 K	288.15 K	298.15 K	308.15 K	318.15 K	328.15 K
m1 = 0.01638	0.0626	0.083	0.106	0.131	0.157	0.184
m1 = 0.03189	0.116	0.155	0.198	0.244	0.292	0.344
m1 = 0.04823	0.17	0.226	0.288	0.356	0.428	0.504
m1 = 0.06109	0.21	0.279	0.357	0.441	0.53	0.625
m1 = 0.07519	0.2524	0.336	0.429	0.531	0.639	0.753
m1 = 0.09179	0.3003	0.399	0.5112	0.632	0.7605	0.896
m1 = 0.1079	0.344	0.459	0.584	0.719	0.865	1.021
m1 = 0.1249	0.388	0.5125	0.647	0.795	0.958	1.135
m1 = 0.1434	0.429	0.559	0.705	0.869	1.05	1.25
m1 = 0.1608	0.46	0.599	0.758	0.936	1.134	1.35
m1 = 0.1798	0.489	0.6405	0.8135	1.008	1.224	1.46
m1 = 0.1991	0.519	0.6831	0.8715	1.08	1.316	1.57
m1 = 0.2177	0.547	0.724	0.927	1.15	1.405	1.68
m1 = 0.2366	0.576	0.766	0.984	1.228	1.5	1.78
m1 = 0.2557	0.605	0.809	1.043	1.303	1.59	1.89

CCCCCCCCCCCC(=O)[O-].[Na+] [sodium dodecanoate] + O
Details	electrical conductivity [S/m]
298.15 K, m1 = 0.01084	0.0726
298.15 K, m1 = 0.01211	0.0809
298.15 K, m1 = 0.01337	0.0892
298.15 K, m1 = 0.01462	0.0974
298.15 K, m1 = 0.01585	0.105
298.15 K, m1 = 0.01707	0.113
298.15 K, m1 = 0.01827	0.121
298.15 K, m1 = 0.01946	0.129
298.15 K, m1 = 0.02064	0.136
298.15 K, m1 = 0.0218	0.143
298.15 K, m1 = 0.02295	0.151
298.15 K, m1 = 0.02408	0.158
298.15 K, m1 = 0.0252	0.165
298.15 K, m1 = 0.02631	0.172
298.15 K, m1 = 0.02741	0.178
298.15 K, m1 = 0.02849	0.183
298.15 K, m1 = 0.02957	0.187
298.15 K, m1 = 0.03063	0.1909
298.15 K, m1 = 0.03168	0.194
298.15 K, m1 = 0.03271	0.198
298.15 K, m1 = 0.03374	0.201
298.15 K, m1 = 0.03476	0.204
298.15 K, m1 = 0.03576	0.207
298.15 K, m1 = 0.03675	0.2102
308.15 K, m1 = 0.01107	0.0928
308.15 K, m1 = 0.01239	0.103
308.15 K, m1 = 0.0137	0.114
308.15 K, m1 = 0.01499	0.125
308.15 K, m1 = 0.01626	0.135
308.15 K, m1 = 0.01752	0.145
308.15 K, m1 = 0.01876	0.155
308.15 K, m1 = 0.01999	0.165
308.15 K, m1 = 0.0212	0.175
308.15 K, m1 = 0.0224	0.185
308.15 K, m1 = 0.02359	0.194
308.15 K, m1 = 0.02476	0.203
308.15 K, m1 = 0.02591	0.212
308.15 K, m1 = 0.02706	0.219
308.15 K, m1 = 0.02819	0.225
308.15 K, m1 = 0.0293	0.231
308.15 K, m1 = 0.03041	0.236
308.15 K, m1 = 0.0315	0.2405
308.15 K, m1 = 0.03257	0.245
308.15 K, m1 = 0.03364	0.249
308.15 K, m1 = 0.0347	0.254
308.15 K, m1 = 0.03574	0.258
308.15 K, m1 = 0.03677	0.262
308.15 K, m1 = 0.03779	0.266
318.15 K, m1 = 0.01302	0.131
318.15 K, m1 = 0.01423	0.142
318.15 K, m1 = 0.01542	0.154
318.15 K, m1 = 0.0166	0.165
318.15 K, m1 = 0.01777	0.176
318.15 K, m1 = 0.01892	0.188
318.15 K, m1 = 0.02006	0.198
318.15 K, m1 = 0.02118	0.209
318.15 K, m1 = 0.02229	0.22
318.15 K, m1 = 0.02339	0.23
318.15 K, m1 = 0.02448	0.24
318.15 K, m1 = 0.02555	0.249
318.15 K, m1 = 0.02661	0.258
318.15 K, m1 = 0.02766	0.265
318.15 K, m1 = 0.0287	0.272
318.15 K, m1 = 0.02972	0.278
318.15 K, m1 = 0.03074	0.283
318.15 K, m1 = 0.03174	0.288
318.15 K, m1 = 0.03274	0.293
318.15 K, m1 = 0.03372	0.298
318.15 K, m1 = 0.03469	0.303
318.15 K, m1 = 0.03565	0.308
318.15 K, m1 = 0.0366	0.312
318.15 K, m1 = 0.03754	0.317
328.15 K, m1 = 0.01297	0.151
328.15 K, m1 = 0.01413	0.164
328.15 K, m1 = 0.01527	0.177
328.15 K, m1 = 0.01641	0.189
328.15 K, m1 = 0.01752	0.202
328.15 K, m1 = 0.01863	0.214
328.15 K, m1 = 0.01972	0.226
328.15 K, m1 = 0.0208	0.238
328.15 K, m1 = 0.02187	0.249
328.15 K, m1 = 0.02292	0.26
328.15 K, m1 = 0.02397	0.271
328.15 K, m1 = 0.025	0.282
328.15 K, m1 = 0.02602	0.293
328.15 K, m1 = 0.02703	0.303
328.15 K, m1 = 0.02802	0.311
328.15 K, m1 = 0.02901	0.319
328.15 K, m1 = 0.02999	0.326
328.15 K, m1 = 0.03095	0.332
328.15 K, m1 = 0.03191	0.338
328.15 K, m1 = 0.03285	0.344
328.15 K, m1 = 0.03379	0.35
328.15 K, m1 = 0.03471	0.355
328.15 K, m1 = 0.03563	0.36
328.15 K, m1 = 0.03653	0.366

CCCCCCCC(=O)[O-].[Na+] [sodium octanoate] + O
electrical conductivity [S/m]
Details	278.15 K	288.15 K	298.15 K	308.15 K	318.15 K	328.15 K
m1 = 0.04715	0.168	0.223	0.284	0.35	0.421	0.494
m1 = 0.0899	0.299	0.398	0.508	0.627	0.754	0.885
m1 = 0.132	0.416	0.555	0.709	0.876	1.06	1.242
m1 = 0.1699	0.5102	0.6723	0.856	1.06	1.28	1.522
m1 = 0.2149	0.606	0.797	1.02	1.27	1.538	1.845
m1 = 0.2635	0.6914	0.924	1.18	1.47	1.88	2.213
m1 = 0.3059	–	0.976	1.29	1.742	2.106	2.49
m1 = 0.3464	–	1.18	1.536	1.913	2.314	2.734
m1 = 0.3898	–	1.29	1.67	2.09	2.526	2.99
m1 = 0.4368	1.015	1.4	1.811	2.26	2.74	3.25
m1 = 0.4813	1.09	1.49	1.934	2.42	2.938	3.48
m1 = 0.5288	1.16	1.58	2.06	2.58	3.138	3.719
m1 = 0.5785	1.224	1.68	2.19	2.75	3.34	3.96
m1 = 0.63	1.29	1.77	2.317	2.912	3.545	4.205
m1 = 0.6829	1.35	1.87	2.45	3.08	3.75	4.448
m1 = 0.7337	1.412	1.96	2.57	3.236	3.94	4.68
